Experiments:
[1] = tested on: human epidermoid carcinoma cells (A431); experiment: MTT cell viability assay, A431; assay type: cell-based
Text: (§1) The immortalized human keratinocytes (HaCaT) were from Innoprot.

[2] = tested on: immortalized murine fibroblasts (BALB/c-3T3); conditions: read-out: IC50 BALB-c/3T3; 48 h incubation, MTT
Experimental: To evaluate their biological activity, the effects of the four complexes on cell viability were evaluated in eukaryotic cell models. For this purpose, experiments were performed on two cancer cell lines, i.e., human epidermoid carcinoma cells (A431) and murine fibroblast BALB/c-3T3 transformed with the SV40 virus (SVT2), and on two non-cancer cell lines, i.e., immortalized human keratinocytes (HaCaT) and immortalized murine fibroblasts (BALB/c-3T3). Cells were incubated with increasing concentrations of 1,Me-Me, 1,Oct-Me, 1,Me-Oct, and 1,Oct-Oct (from 0.1 to 50 μM). After 48 h of incubation, cytotoxicity was determined by MTT assay and cell survival was expressed as the percentage of viable cells in the presence of each complex compared with that of the untreated cells (Figure S19).
The immortalized human keratinocytes (HaCaT) were from Innoprot. Human The A431 epidermoid carcinoma, murine BALB/c-3T3, and SVT2 fibroblasts were from ATCC. Cells were cultured in Dulbecco’s modified Eagle’s medium (DMEM) (Sigma-Aldrich, St. Louis, MO, USA), supplemented with 10% foetal bovine serum (HyClone), 2 mM L-glutamine, and antibiotics, all from Sigma-Aldrich, under a 5% CO2-humidified atmosphere at 37 °C. To test the effects of the complexes on cell viability, cells were seeded at a density of 2.5 × 10^3 cells per well in 96-well plates. After 24 h, cells were incubated with increasing concentrations (from 0.1 to 50 μM) of the four complexes. After 48 h, cell viability was assessed by the MTT assay, as previously reported in [43]. Cell viability was expressed as the percentage of viable cells in the presence of the Pt complexes compared to the controls, represented by untreated cells and cells supplemented with identical volumes of DMSO. Each sample was tested in three independent analyses, each carried out in triplicate.

[3] = tested on: murine fibroblast BALB/c-3T3 transformed with the SV40 virus (SVT2); experiment: MTT cell viability assay, SVT2; assay type: cell-based
Text: as §1

Calf thymus DNA = experiment: Ethidium bromide displacement DNA binding assay; conditions: 0.05 M ammonium acetate pH 7.5, titration with complex
Text: The interaction of Pt-based drugs with biological macromolecules deeply affects their biological activity. DNA represents a target for this kind of metallodrug, while proteins are considered both as carriers and targets. To obtain information on the reactivity of the synthesised Pt compounds with DNA, fluorescence intercalation displacement assays have been performed using ethidium bromide (EB) as the DNA intercalator. When bound to DNA, EB has an emission fluorescence of significant intensity. On the other hand, when it is displaced by a competitive DNA-binding molecule, it undergoes quenching by water molecules. Thus, if a molecule binds DNA by displacing EB, a significant reduction in the fluorescence intensity of the EB-DNA complex will be observed.
The ethidium bromide (EB) displacement assay was performed on a HORIBA FluoroMax-4 spectrofluorometer equipped with a thermostat bath. Calf thymus DNA was incubated with EB in 0.05 M of ammonium acetate at pH 7.5, at a DNA:EB molar ratio of 1:5 for 30 min in the dark at room temperature. Then, the fluorescence quenching of this complex was evaluated by adding to it increasing amounts of Pt compounds dissolved in DMSO (20 mM). Samples were equilibrated for 5 min before collecting each spectrum. […]

[4] = molecular target: T1, hen egg white lysozyme (HEWL) (Gallus gallus, UniProt P00698); experiment: X-ray structure of adducts with HEWL; assay type: binding
T1 construct: model protein hen egg white lysozyme (HEWL); purchased Merck KGaA (Darmstadt, Germany); host or cells: hen egg white (natural source, by the protein's name)
Experimental: To obtain information on the reactivity of 1-Me,Me with proteins, the X-ray structure of the adducts that the Pt compound forms with HEWL was solved.
The structures were obtained using crystals grown in 20% ethylene glycol, 0.1 M sodium acetate buffer at pH 4.0, and 0.6 M sodium nitrate (Structure A, Figure 8A) and in 2.0 M sodium formate and 0.1 M Hepes at pH 7.5 (Structure B, Figure 8B), refined at 1.25 and 1.33 Å resolutions, respectively (Table S2).
HEWL crystals were grown using the hanging drop vapour diffusion method and the following reservoirs: • (a) 20% ethylene glycol, 0.10 M sodium acetate at pH 4.0, and 0.60 M sodium nitrate • (b) 2.0 M sodium formate and 0.1 M HEPES at pH 7.5.
The crystals of the protein adduct with 1-Me,Me were obtained by the soaking procedure. The HEWL crystals were soaked in a solution consisting of 83% reservoir, 17% DMSO, and 3.3 mM 1-Me,Me.
The structures of the Pt–HEWL adducts were solved by the molecular replacement method, using the HEWL coordinates deposited in the PDB under the accession code 193L [40] as a model. Refinements were carried out with a CCP4 REFMAC5 [46], and the model building, adjustments, and inspection of the electron density maps was manually carried out using WinCoot.
The Pt binding sites were unambiguously identified by comparing 2Fo–Fc, residual Fo–Fc, and anomalous difference electron density maps. […]

## Platinum(1+), (2,9-dimethyl-1,10-phenanthroline- N1,N10)(η2-ethene)methyl[1,3-dihydro-1,3-dimethyl-4-[1-[2,3,4,6-tetrakis-O-(acetyl)-β-D-glucopyranosyl]-1H-1,2,3-triazol-4-yl]-2H-imidazol-2-ylidene], 1,1,1-trifluoromethanesulfonate [1-Me,Me]
[1]; 48 h incubation, MTT
  IC50: 20 ± 2 µM
[1]; ratio IC50 HaCaT / IC50 A431
  SI (selectivity index): 0.42
[2]
  IC50: 26 ± 1 µM
[3]; 48 h incubation, MTT
  IC50: 9.8 ± 0.3 µM
[3]; ratio IC50 BALB-c/3T3 / IC50 SVT2
  SI (selectivity index): 2.65
Calf thymus DNA
  fluorescence intensity of EB-DNA complex: significant reduction in fluorescence intensity
[4]; Structure A: 20% ethylene glycol, 0.1 M sodium acetate pH 4.0, 0.6 M sodium nitrate
  Pt binding sites on HEWL: two Pt binding sites were observed
[4]; Structure B: 2.0 M sodium formate, 0.1 M Hepes pH 7.5
  Pt binding sites on HEWL: a single Pt binding site was observed

Source: PMC9916762, “Impact of Hydrophobic Chains in Five-Coordinate Glucoconjugate Pt(II) Anticancer Agents” (International Journal of Molecular Sciences, 2023)
